Read-outs that look alike come from different tables or passages of the source.
Legend:
[1] = Pharmacokinetic study in rats (oral gavage and tail vein injection, plasma LC-MS/MS); format: in vivo; settings: rat; for Cmax: read-out: Cmax
Summary of the method: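 Plasma from SD rats is taken at 0.167–24 h after oral gavage or at 0.033–24 h after intravenous tail-vein dosing and assayed by LC-MS/MS. Oral animals are fasted overnight and dosed in DMSO/ethanol/PEG400/saline; IV animals receive ethanol/water/PEG400. PK parameters come from a non-compartmental model.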

LPAR1 receptor = target: T1, LPAR1 receptor (Homo sapiens, UniProt Q92633); assay: LPAR1 in vitro biological activity evaluation 2: HTRF cAMP kit (LANCE Ultra cAMP Kit) assay in CHO stable transfected cell line expressing the LPAR1 receptor; format: cell-based
T1 construct: expressed in transfected cells
Protocol: The inhibitory effects of the compounds of the present disclosure on the LPAR1 receptor were determined using a Chinese hamster ovary (CHO) stable transfected cell line expressing the LPAR1 receptor, through the HTRF cAMP kit (LANCE® Ultra cAMP Kit).
The CHO cell line expressing the LPAR1 receptor was cultured in F-12 medium (Gibco, 117650054) containing 10% fetal bovine serum (FBS, Avantor, 76294-180) and 0.2 mg/mL hygromycin B (Solarbio, H8080-1g) at 37°C with 5% CO2. Cell passage, recovery, and cryopreservation were performed according to conventional methods. The stable transfected cell line was cultured to 80% confluence, digested with trypsin to collect cells, counted, and then seeded at 5 µL/well in a 384-well plate (500 cells/5 µL). The 1× Stimulation Buffer was prepared according to the instructions of the kit (LANCE® Ultra cAMP Kit). 1 µL of the test compound solution (diluted to 10× with 1× Stimulation Buffer) was added to the corresponding experimental wells, followed by centrifugation and incubation at 37°C for 10 minutes. […] 5 µL/well of Eu-cAMP (diluted with Detection buffer) was added to the corresponding experimental wells. 5 µL/well of ULight™-anti-cAMP antibody (diluted with Detection buffer) was added to the corresponding experimental wells, followed by centrifugation and incubation at room temperature for 1 hour. After the incubation was completed, the readings at 665 nm and 620 nm under 330 nm excitation were detected using the HTS high-throughput drug screening multifunctional microplate reader (BMG, PHERAstar FSX). The IC50 values were calculated by fitting nonlinear regression (dose response - variable slope) using GraphPad Prism software.

[2] = target: hLPAR1 (human lysophosphatidic acid receptor 1, Accession No.: NM_001401.4) (Homo sapiens, UniProt Q92633); assay: cell-based; settings: FLIPR method, CHO-K1 cells overexpressing hLPAR1
Summary of the method: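 Antagonist mode in CHO-K1 cells stably expressing hLPAR1, Fluo-4 loaded; compound preincubated 30 min at room temperature before 1 µM oleoyl-LPA (final) challenge.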

[3] = Table 2, read-out: LPAR1 inhibitory activity IC50
[4] = LPAR1 inhibitory activity IC50, Table 1
[5] = Table 1, read-out: LPAR1 inhibitory activity IC50

Chain of hLPAR1 (human lysophosphatidic acid receptor 1, Accession No.: NM_001401.4) (Q92633 whole entry): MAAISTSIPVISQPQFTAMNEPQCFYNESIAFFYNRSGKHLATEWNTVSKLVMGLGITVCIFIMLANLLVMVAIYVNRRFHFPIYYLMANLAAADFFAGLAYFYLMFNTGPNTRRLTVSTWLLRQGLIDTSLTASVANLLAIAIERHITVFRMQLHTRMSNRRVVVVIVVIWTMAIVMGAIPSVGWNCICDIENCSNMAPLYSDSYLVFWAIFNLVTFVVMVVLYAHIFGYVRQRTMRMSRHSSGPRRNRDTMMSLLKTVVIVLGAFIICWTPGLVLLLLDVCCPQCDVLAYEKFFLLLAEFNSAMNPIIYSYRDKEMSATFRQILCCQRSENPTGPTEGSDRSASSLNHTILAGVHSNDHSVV
T1 sequence (Q92633 whole entry): as above

Structure (SMILES) | AUC(0-t) ([1]; SD rats, Iv, 1 mg/kg) | half-life ([1]; SD rats, Iv, 1 mg/kg) | Cmax ([1]; SD rats, Iv, 1 mg/kg) | AUC(0-t) ([1]; SD rats, Po, 1 mg/kg) | half-life ([1]; SD rats, Po, 1 mg/kg) | Cmax ([1]; SD rats, Po, 1 mg/kg) | IC50 (LPAR1 receptor; [3]) | half-life ([1]; male, SD, iv, 1 mg/kg) | half-life ([1]; male, SD, po, 1 mg/kg) | AUC(0-t) ([1]; male, SD rats, Iv, 1 mg/kg) | Cmax ([1]; male, SD rats, Iv, 1 mg/kg) | AUC(0-t) ([1]; male, SD rats, Po, 1 mg/kg) | Cmax ([1]; male, SD rats, Po, 1 mg/kg) | also measured
CCC(F)(F)[C@@H](C)OC(=O)Nc1c(-c2ccc(C#CC3(CC(=O)O)CC(OC)C3)c(C(F)(F)F)n2)nnn1C (some centres unmarked) [compound 463] | 3000 to 5000 ng·h/mL | 5.44 h | 5000 to 8000 ng/mL | 5000 to 10000 ng·h/mL | 5.47 h | 800 to 5000 ng/mL | 38.2 nM |  |  |  |  |  |  | 
CCCN(C)C(=O)OCc1c(-c2ccc(O[C@H]3CCC[C@H](C(=O)O)C3)c(C)n2)nnn1C [Control compound 1, reference compound] |  |  |  |  |  |  | 407 nM | 3.26 h | 2.37 h | 811 ng·h/mL | 1570 ng/mL | 626 ng·h/mL | 154 ng/mL | half-life ([1]; male, SD, po, 3 mg/kg): 2.59 h; AUC(0-t) ([1]; male, SD rats, Po, 3 mg/kg): 1540 ng·h/mL; Cmax ([1]; male, SD rats, Po, 3 mg/kg): 985 ng/mL
CCC(F)(F)[C@@H](C)OC(=O)Nc1c(-c2ccc(C#CC3(CC(=O)O)CC(OC)C3)c(C)n2)noc1C (some centres unmarked) [compound 468] | 3000 to 5000 ng·h/mL | 2.35 h | 800 to 5000 ng/mL | 5000 to 10000 ng·h/mL | 2.77 h | 200 to 800 ng/mL |  |  |  |  |  |  |  | IC50 (LPAR1 receptor; LPAR1 inhibitory activity IC50, Table 2): 31.6 nM
CCc1nc(-c2nnn(C)c2NC(=O)O[C@H](C)C(F)(F)CC)ccc1C#CC1(CC(=O)O)CC(OC)C1 (some centres unmarked) [compound 462] |  |  |  |  |  |  | 48.7 nM | 6.41 h | 5.41 h | 5000 to 10000 ng·h/mL | 8000 to 12000 ng/mL | 10000 to 20000 ng·h/mL | 800 to 5000 ng/mL | 
Cc1nc(-c2nnn(C)c2NC(=O)O[C@H](C)CC(C)C)ccc1C#C[C@@H]1CC[C@H]1C(=O)O [compound 308] |  |  |  |  |  |  | 93.2 nM |  |  |  |  |  |  | IC50 [2, 4]: 10.9 nM
CCCC[C@@H](C)OC(=O)Nc1c(-c2ccc(C#CC3(CC(=O)O)CC3)c(C)n2)nnn1C [compound 313] | 3000 to 5000 ng·h/mL | 5.12 h | 800 to 5000 ng/mL |  |  |  | 156 nM |  |  |  |  |  |  | AUC(0-t) ([1]; SD rats, Po, 3 mg/kg): 10000 to 20000 ng·h/mL; half-life ([1]; SD rats, Po, 3 mg/kg): 5.59 h; Cmax ([1]; SD rats, Po, 3 mg/kg): 800 to 5000 ng/mL; IC50 [2, 4]: 16.1 nM
CCC(F)(F)[C@@H](C)OC(=O)Nc1c(C)noc1-c1ccc(C#CC2(CC(=O)O)CC(OC)C2)c(C(F)(F)F)n1 (some centres unmarked) [compound 506] |  |  |  |  |  |  | 20.1 nM | 2.51 h | 2.41 h | 10000 to 20000 ng·h/mL | 8000 to 12000 ng/mL | 10000 to 20000 ng·h/mL | 800 to 5000 ng/mL | 
CCc1nc(-c2nnn(C)c2NC(=O)O[C@H](C)CC(C)(F)F)ccc1C#CC1(CC(=O)O)CC1 [compound 232] | 5000 to 10000 ng·h/mL | 14.5 h | 800 to 5000 ng/mL | 3000 to 5000 ng·h/mL | 14 h | 200 to 800 ng/mL | 75.4 nM |  |  |  |  |  |  | 
CCC[C@@H](C)OC(=O)Nc1c(-c2ccc(C#CC3(CC(=O)O)CC(OC)C3)c(C)n2)nnn1C (some centres unmarked) [compound 278] |  |  |  |  |  |  | 34.4 nM | 5.24 h | 4.5 h | 5000 to 10000 ng·h/mL | 5000 to 8000 ng/mL | 5000 to 10000 ng·h/mL | 200 to 800 ng/mL | IC50 [2, 5]: 38.1 nM
CCC[C@@H](C)OC(=O)Nc1c(-c2ccc(C#C[C@@H]3C[C@H]3C(=O)O)c(C)n2)nnn1C (mixture of isomers) [224-B, trans-2-((2-methyl-6-(1-methyl-5-(((((R)-pentan-2-yl)oxy)carbonyl)amino)-1H-1,2,3-triazol-4-yl)pyridin-3-yl)ethynyl)cyclopropane-1-carboxylic acid] |  |  |  |  |  |  | 127 nM |  |  |  |  |  |  | IC50 [2, 5]: 70 nM
CCc1nc(-c2noc(C)c2NC(=O)O[C@H](C)C(F)(F)CC)ccc1C#CC1(CC(=O)O)CC(OC)C1 (some centres unmarked) [compound 492] | 5000 to 10000 ng·h/mL | 3.92 h | 800 to 5000 ng/mL | 5000 to 10000 ng·h/mL | 3.75 h | 800 to 5000 ng/mL | 8.6 nM |  |  |  |  |  |  | 
Cc1nc(-c2onc(C)c2NC(=O)O[C@H](C)CC(C)(F)F)ccc1C#CC1(CC(=O)O)CC1 [compound 276] | 3000 to 5000 ng·h/mL | 3.69 h | 800 to 5000 ng/mL |  |  |  | 96.4 nM |  |  |  |  |  |  | 
CCC(F)(F)[C@@H](C)OC(=O)Nc1c(-c2ccc(C#CC3(CC(=O)O)CC3)c(C)n2)noc1C [compound 444] | 1200 to 3000 ng·h/mL | 2.91 h | 800 to 5000 ng/mL | 3000 to 5000 ng·h/mL | 3.61 h | 200 to 800 ng/mL | 48.4 nM |  |  |  |  |  |  | 
Cc1nc(-c2nnn(C)c2NC(=O)O[C@H](C)c2ccccc2)ccc1C#C[C@@H]1CC[C@H]1C(=O)O [compound 309] |  |  |  |  |  |  | 83.2 nM | 4.36 h | 4.08 h | 3000 to 5000 ng·h/mL | 800 to 5000 ng/mL | 5000 to 10000 ng·h/mL | 800 to 5000 ng/mL | 
CCOC1CC(C#Cc2ccc(-c3nnn(C)c3NC(=O)O[C@H](C)C(F)(F)CC)nc2C)(CC(=O)O)C1 (some centres unmarked) [compound 429] |  |  |  |  |  |  | 33.4 nM | 6.87 h | 5.7 h | 3000 to 5000 ng·h/mL | 5000 to 8000 ng/mL | 3000 to 5000 ng·h/mL | 200 to 800 ng/mL | 
CCCC(C)OC(=O)Nc1c(-c2ccc(C#CC3CCCC3C(=O)O)c(C)n2)nnn1C (single isomer, unassigned) [305-B] | 3000 to 5000 ng·h/mL | 3.52 h | 800 to 5000 ng/mL | 5000 to 10000 ng·h/mL | 3.49 h | 800 to 5000 ng/mL | 81.5 nM |  |  |  |  |  |  | 
